Source: PubChem BioAssay (NCI)
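Compound exposure: 48 hours, 5 concentrations, 96-well plates. TGI denotes the concentration required for complete inhibition of growth.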

Tests used:
Experiment in all cases: NCI tumour cell line growth inhibition, 48 h
MCF7 breast = test system: MCF7 breast
SNB-19 CNS = test system: SNB-19 CNS
NCI-H226 lung = test system: NCI-H226 lung
SK-MEL-5 melanoma = test system: SK-MEL-5 melanoma
M14 melanoma = test system: M14 melanoma
HCT-15 colon = test system: HCT-15 colon
NCI-H522 lung = test system: NCI-H522 lung
NCI/ADR-RES ovarian = test system: NCI/ADR-RES ovarian
SK-MEL-2 melanoma = test system: SK-MEL-2 melanoma
UO-31 renal = test system: UO-31 renal
SN12C renal = test system: SN12C renal
SK-OV-3 ovarian = test system: SK-OV-3 ovarian
HT29 colon = test system: HT29 colon
SK-MEL-28 melanoma = test system: SK-MEL-28 melanoma
UACC-257 melanoma = test system: UACC-257 melanoma
SNB-75 CNS = test system: SNB-75 CNS
COLO 205 colon = test system: COLO 205 colon
HOP-92 NSCLC = test system: HOP-92 NSCLC
K-562 leukemia = test system: K-562 leukemia
LOX IMVI melanoma = test system: LOX IMVI melanoma
BT-549 breast = test system: BT-549 breast
SF-539 CNS = test system: SF-539 CNS
HS 578T breast = test system: HS 578T breast
CCRF-CEM leukemia = test system: CCRF-CEM leukemia
SW-620 colon = test system: SW-620 colon
SF-295 CNS = test system: SF-295 CNS
KM12 colon = test system: KM12 colon
UACC-62 melanoma = test system: UACC-62 melanoma
HL-60(TB) leukemia = test system: HL-60(TB) leukemia
SF-268 CNS = test system: SF-268 CNS
OVCAR-3 ovarian = test system: OVCAR-3 ovarian
A498 renal = test system: A498 renal
MDA-MB-231 breast = test system: MDA-MB-231 breast
MALME-3M melanoma = test system: MALME-3M melanoma
SR leukemia = test system: SR leukemia
HCT-116 colon = test system: HCT-116 colon
PC-3 prostate = test system: PC-3 prostate
T-47D breast = test system: T-47D breast
MDA-MB-435 = test system: MDA-MB-435
DU-145 prostate = test system: DU-145 prostate
MDA-N = test system: MDA-N
TK-10 renal = test system: TK-10 renal
OVCAR-4 ovarian = test system: OVCAR-4 ovarian
ACHN renal = test system: ACHN renal
NCI-H23 lung = test system: NCI-H23 lung
MOLT-4 leukemia = test system: MOLT-4 leukemia
RPMI-8226 leukemia = test system: RPMI-8226 leukemia
A549 NSCLC = test system: A549 NSCLC
HOP-62 NSCLC = test system: HOP-62 NSCLC
786-0 renal = test system: 786-0 renal
IGROV1 ovarian = test system: IGROV1 ovarian
CAKI-1 renal = test system: CAKI-1 renal
NCI-H460 lung = test system: NCI-H460 lung
RXF 393 renal = test system: RXF 393 renal
OVCAR-5 ovarian = test system: OVCAR-5 ovarian
OVCAR-8 ovarian = test system: OVCAR-8 ovarian
HCC-2998 colon = test system: HCC-2998 colon
U251 CNS = test system: U251 CNS
EKVX NSCLC = test system: EKVX NSCLC

## C[C@]12CC/C(=N\O)C=C1CC[C@@H]1[C@@H]2CC[C@]2(C)C(=N/O)/C(=C/c3ccc([N+](=O)[O-])cc3)C[C@@H]12
MCF7 breast
  TGI: > 100 µM
SNB-19 CNS
  TGI: > 100 µM
NCI-H226 lung
  TGI: > 100 µM
SK-MEL-5 melanoma
  TGI: 16.2 µM
M14 melanoma
  TGI: 16 µM
HCT-15 colon
  TGI: > 100 µM
NCI-H522 lung
  TGI: 9.64 µM
NCI/ADR-RES ovarian
  TGI: > 100 µM
SK-MEL-2 melanoma
  TGI: 17.1 µM
UO-31 renal
  TGI: 20.4 µM
SN12C renal
  TGI: 30.7 µM
SK-OV-3 ovarian
  TGI: > 100 µM
HT29 colon
  TGI: 21.9 µM
SK-MEL-28 melanoma
  TGI: > 100 µM
UACC-257 melanoma
  TGI: 33.9 µM
SNB-75 CNS
  TGI: 26.9 µM
COLO 205 colon
  TGI: 53.3 µM
HOP-92 NSCLC
  TGI: 22.1 µM
K-562 leukemia
  TGI: 19.5 µM
LOX IMVI melanoma
  TGI: 19.3 µM
BT-549 breast
  TGI: 14.3 µM
SF-539 CNS
  TGI: > 100 µM
HS 578T breast
  TGI: 18.3 µM
CCRF-CEM leukemia
  TGI: 16 µM
SW-620 colon
  TGI: > 100 µM
SF-295 CNS
  TGI: 8.96 µM
KM12 colon
  TGI: 23.6 µM
UACC-62 melanoma
  TGI: 14.6 µM
HL-60(TB) leukemia
  TGI: 8.91 µM
SF-268 CNS
  TGI: > 100 µM
OVCAR-3 ovarian
  TGI: 8.1 µM
A498 renal
  TGI: 45.4 µM
MDA-MB-231 breast
  TGI: 29.6 µM
MALME-3M melanoma
  TGI: 71 µM
SR leukemia
  TGI: 9.26 µM
HCT-116 colon
  TGI: 14.2 µM
PC-3 prostate
  TGI: 34.5 µM
T-47D breast
  TGI: 3.69 µM
MDA-MB-435
  TGI: 19 µM
DU-145 prostate
  TGI: 28.8 µM
MDA-N
  TGI: 85 µM
TK-10 renal
  TGI: 91 µM
OVCAR-4 ovarian
  TGI: 44.4 µM
ACHN renal
  TGI: > 100 µM
NCI-H23 lung
  TGI: 75.2 µM
MOLT-4 leukemia
  TGI: 9.55 µM
RPMI-8226 leukemia
  TGI: 7.61 µM
A549 NSCLC
  TGI: > 100 µM
HOP-62 NSCLC
  TGI: > 100 µM
786-0 renal
  TGI: 27.7 µM
IGROV1 ovarian
  TGI: 12.5 µM
CAKI-1 renal
  TGI: 6.41 µM
NCI-H460 lung
  TGI: > 100 µM
RXF 393 renal
  TGI: > 100 µM

## Cc1oc2c(Cl)cc(O)c(Cl)c2c2cccc1-2
OVCAR-5 ovarian
  TGI: > 100 µM
MCF7 breast
  TGI: > 100 µM
SNB-19 CNS
  TGI: > 100 µM
NCI-H226 lung
  TGI: 61.6 µM
SK-MEL-5 melanoma
  TGI: 52.1 µM
M14 melanoma
  TGI: > 100 µM
HCT-15 colon
  TGI: 75.4 µM
NCI-H522 lung
  TGI: 83.3 µM
NCI/ADR-RES ovarian
  TGI: 79.9 µM
SK-MEL-2 melanoma
  TGI: > 100 µM
UO-31 renal
  TGI: > 100 µM
SN12C renal
  TGI: 80.7 µM
SK-OV-3 ovarian
  TGI: > 100 µM
HT29 colon
  TGI: > 100 µM
SK-MEL-28 melanoma
  TGI: 57.5 µM
UACC-257 melanoma
  TGI: > 100 µM
SNB-75 CNS
  TGI: 20.7 µM
COLO 205 colon
  TGI: > 100 µM
HOP-92 NSCLC
  TGI: 52.1 µM
K-562 leukemia
  TGI: 47.4 µM
LOX IMVI melanoma
  TGI: 36.1 µM
OVCAR-8 ovarian
  TGI: 82.6 µM
BT-549 breast
  TGI: 74.2 µM
SF-539 CNS
  TGI: 71.4 µM
HS 578T breast
  TGI: > 100 µM
CCRF-CEM leukemia
  TGI: 95.3 µM
HCC-2998 colon
  TGI: > 100 µM
SW-620 colon
  TGI: > 100 µM
SF-295 CNS
  TGI: > 100 µM
KM12 colon
  TGI: 47.4 µM
UACC-62 melanoma
  TGI: > 100 µM
HL-60(TB) leukemia
  TGI: > 100 µM
SF-268 CNS
  TGI: > 100 µM
OVCAR-3 ovarian
  TGI: 56.6 µM
U251 CNS
  TGI: 64.9 µM
A498 renal
  TGI: > 100 µM
MDA-MB-231 breast
  TGI: > 100 µM
MALME-3M melanoma
  TGI: 53.1 µM
SR leukemia
  TGI: 77 µM
HCT-116 colon
  TGI: 36.4 µM
PC-3 prostate
  TGI: > 100 µM
EKVX NSCLC
  TGI: 54.6 µM
T-47D breast
  TGI: 16.5 µM
MDA-MB-435
  TGI: 70 µM
DU-145 prostate
  TGI: 27.5 µM
MDA-N
  TGI: 60.3 µM
TK-10 renal
  TGI: > 100 µM
OVCAR-4 ovarian
  TGI: 36.9 µM
ACHN renal
  TGI: > 100 µM
NCI-H23 lung
  TGI: 44.1 µM
RPMI-8226 leukemia
  TGI: 36.6 µM
A549 NSCLC
  TGI: > 100 µM
HOP-62 NSCLC
  TGI: 66.5 µM
786-0 renal
  TGI: 76 µM
IGROV1 ovarian
  TGI: 75.4 µM
CAKI-1 renal
  TGI: > 100 µM
NCI-H460 lung
  TGI: > 100 µM
